Measurements reported in ChEMBL document CHEMBL1135231, “Syntheses and binding affinities of 6-nitroquipazine analogues for serotonin transporter. Part 2: 4-substituted 6-nitroquipazines” (Bioorg Med Chem Lett, 2002).

Target: T1, Sodium-dependent serotonin transporter (Rattus norvegicus, UniProt P31652)
Assay: Displacement of [3H]citalopram from rat cortical serotonin transporter (SERT)

T1 sequence (P31652 whole entry): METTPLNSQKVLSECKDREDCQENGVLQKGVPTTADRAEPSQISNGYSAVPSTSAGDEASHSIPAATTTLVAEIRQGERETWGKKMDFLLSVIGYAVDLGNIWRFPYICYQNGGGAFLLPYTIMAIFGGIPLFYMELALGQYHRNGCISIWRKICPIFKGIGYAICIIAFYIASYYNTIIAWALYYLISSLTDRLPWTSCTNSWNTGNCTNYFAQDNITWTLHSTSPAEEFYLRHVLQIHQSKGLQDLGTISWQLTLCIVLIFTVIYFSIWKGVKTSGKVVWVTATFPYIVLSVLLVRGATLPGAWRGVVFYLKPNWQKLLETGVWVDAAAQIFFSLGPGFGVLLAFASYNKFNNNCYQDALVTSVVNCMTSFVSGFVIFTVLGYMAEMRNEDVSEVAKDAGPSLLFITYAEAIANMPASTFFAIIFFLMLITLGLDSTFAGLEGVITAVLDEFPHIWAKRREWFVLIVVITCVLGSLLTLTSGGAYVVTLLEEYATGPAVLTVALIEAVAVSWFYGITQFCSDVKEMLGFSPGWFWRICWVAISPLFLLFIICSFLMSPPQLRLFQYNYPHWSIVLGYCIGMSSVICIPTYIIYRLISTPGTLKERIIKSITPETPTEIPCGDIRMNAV

Ki [nM]	SMILES
1.82	C=Cc1cc(N2CCNCC2)nc2ccc([N+](=O)[O-])cc12
1.73	O=[N+]([O-])c1ccc2nc(N3CCNCC3)cc(I)c2c1
60	O=[N+]([O-])c1ccc2nc(N3CCNCC3)cc(-c3ccccc3)c2c1
0.013	CN(C)Cc1ccccc1Sc1ccc(I)cc1N
61.1	O=[N+]([O-])c1ccc2nc(N3CCNCC3)cc(N3CCCC3)c2c1
0.03	O=[N+]([O-])c1ccc2nc(N3CCNCC3)cc(Cl)c2c1
67.2	O=[N+]([O-])c1ccc2nc(N3CCNCC3)cc(-c3cccs3)c2c1

SMILES	Ki [nM]
O=[N+]([O-])c1ccc2nc(N3CCNCC3)cc(-c3ccco3)c2c1	5.23
C=CCc1cc(N2CCNCC2)nc2ccc([N+](=O)[O-])cc12	1.67
O=[N+]([O-])c1ccc2nc(N3CCNCC3)cc(Br)c2c1	0.37
O=[N+]([O-])c1ccc2nc(N3CCNCC3)cc(Cc3ccccc3)c2c1	127

Target: T1, Sodium-dependent serotonin transporter
Assay: Compound was evaluated for its ability to displace [3H]citalopram binding to the rat cortical Serotonin transporter

Ki [nM]	SMILES
1.73	O=CN1CCN(c2cc(Br)c3cc([N+](=O)[O-])ccc3n2)CC1
